Consider 29 molecules from US20230167073A1 (Teijin Pharma Limited, priority 2020, published 2023).

This assay addresses T1, Human TRPC6 (Homo sapiens, UniProt Q9Y210).
T1 construct: expressed in transfected cells
T1 sequence (Q9Y210 1-931): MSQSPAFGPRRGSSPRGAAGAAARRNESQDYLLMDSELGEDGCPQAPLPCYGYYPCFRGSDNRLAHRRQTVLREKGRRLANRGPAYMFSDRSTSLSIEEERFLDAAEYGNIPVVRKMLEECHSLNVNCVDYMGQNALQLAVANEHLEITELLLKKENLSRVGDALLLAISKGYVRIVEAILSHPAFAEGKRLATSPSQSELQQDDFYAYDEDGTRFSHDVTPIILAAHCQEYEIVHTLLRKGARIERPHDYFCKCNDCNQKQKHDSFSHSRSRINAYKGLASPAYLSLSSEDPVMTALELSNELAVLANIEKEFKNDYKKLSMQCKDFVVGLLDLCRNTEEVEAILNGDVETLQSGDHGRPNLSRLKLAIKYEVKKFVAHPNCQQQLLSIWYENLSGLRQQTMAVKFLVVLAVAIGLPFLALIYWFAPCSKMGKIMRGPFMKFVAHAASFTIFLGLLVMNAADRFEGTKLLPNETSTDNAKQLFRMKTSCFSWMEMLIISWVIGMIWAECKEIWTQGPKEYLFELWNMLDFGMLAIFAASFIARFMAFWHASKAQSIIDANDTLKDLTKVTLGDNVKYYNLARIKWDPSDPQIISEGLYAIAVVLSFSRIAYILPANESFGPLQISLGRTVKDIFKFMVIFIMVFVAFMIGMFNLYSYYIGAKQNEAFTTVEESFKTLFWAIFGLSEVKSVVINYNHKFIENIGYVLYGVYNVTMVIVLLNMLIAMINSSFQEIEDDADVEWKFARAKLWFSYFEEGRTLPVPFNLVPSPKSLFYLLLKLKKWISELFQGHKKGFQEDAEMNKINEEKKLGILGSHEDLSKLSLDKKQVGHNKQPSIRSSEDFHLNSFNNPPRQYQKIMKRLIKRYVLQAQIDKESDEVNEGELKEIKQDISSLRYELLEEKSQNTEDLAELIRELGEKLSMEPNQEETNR
In words: Evaluation of TRPC6 channel inhibitory activity (1), FLIPR Calcium 5 Assay Kit, OAG stimulation (Compound Nos. 1-1293). To be noted: Human TRPC6 stably-expressing cells, OAG 30 μM, FLIPR Calcium 5 Assay Kit; read-out: Inhibitory activity (pIC50 class) (converted). Format: cell-based. The procedure, abridged:
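TRPC6 (human) stable cells, 24 h culture; Ca5 no-wash dye + probenecid 30 min; cpd 20 min; OAG 30 μM final; ΔF (pre-cpd min to post-OAG max); 0%/100% = no cpd / no cpd + no OAG; 4PL → pIC50, binned +/++/+++.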

On to `CC(N)c1ccc(-c2ccc(C#N)cc2Oc2cc(C3CC3)nn2C)nc1` (centres unmarked) [compound 401, 4-[5-(1-aminoethyl)pyridin-2-yl]-3-(5-cyclopropyl-2-methylpyrazol-3-yl)oxybenzonitrile], for which the IC50 was under 10 nM.

As to `Cn1nc(-c2cccc(F)c2)cc1Oc1cc(C#N)ccc1-c1ncc(CCN)cn1` [compound 402, 4-[5-(2-aminoethyl)pyrimidin-2-yl]-3-[5-(3-fluorophenyl)-2-methylpyrazol-3-yl]oxybenzonitrile], the IC50 was under 10 nM.

Regarding `Cn1nc(-c2cccc(F)c2)cc1Oc1cc(C#N)ccc1-c1ccc([C@H](O)CN)cn1` [compound 403, 4-[5-[(1S)-2-amino-1-hydroxyethyl]pyridin-2-yl]-3-[5-(3-fluorophenyl)-2-methylpyrazol-3-yl]oxybenzonitrile], the IC50 was under 10 nM.

As to `Cn1nc(C(C)(C)C)cc1Oc1cc(C#N)ccc1-c1ccc([C@H](O)CN)cn1` [compound 405, 4-[5-[(1S)-2-amino-1-hydroxyethyl]pyridin-2-yl]-3-(5-tert-butyl-2-methylpyrazol-3-yl)oxybenzonitrile], the IC50 was under 10 nM.

For `Cn1nc(C(C)(C)C)cc1Oc1cc(C#N)ccc1-c1ncc([C@H](O)CN)cn1` [compound 406, 4-[5-[(1S)-2-amino-1-hydroxyethyl]pyrimidin-2-yl]-3-(5-tert-butyl-2-methylpyrazol-3-yl)oxybenzonitrile], the IC50 was under 10 nM.

For the molecule `CC(C)n1nc(C2CC2)cc1Oc1cc(C#N)ccc1-c1ccc([C@H](O)CN)cn1` [compound 407, 4-[5-[(1S)-2-amino-1-hydroxyethyl]pyridin-2-yl]-3-(5-cyclopropyl-2-propan-2-ylpyrazol-3-yl)oxybenzonitrile], the IC50 was under 10 nM.

Consider `CC(C)n1nc(C2CC2)cc1Oc1cc(C#N)ccc1-c1ncc([C@H](O)CN)cn1` [compound 408, 4-[5-[(1S)-2-amino-1-hydroxyethyl]pyrimidin-2-yl]-3-(5-cyclopropyl-2-propan-2-ylpyrazol-3-yl)oxybenzonitrile], for which the IC50 was 10 to 1000 nM.

Regarding `COC(=O)C(N)c1ccc(-c2ccc(C#N)cc2Oc2cc(C)nc(N3CCOCC3)c2)nc1` (centres unmarked) [compound 409, methyl 2-amino-2-[6-[4-cyano-2-(2-methyl-6-morpholin-4-ylpyridin-4-yl)oxyphenyl]pyridin-3-yl]acetate], the IC50 is 10 to 1000 nM.

Turning to `Cc1cc(Oc2cc(C#N)ccc2-c2ccc(C(N)C(=O)O)cn2)cc(N2CCOCC2)n1` (centres unmarked) [compound 410, 2-amino-2-[6-[4-cyano-2-(2-methyl-6-morpholin-4-ylpyridin-4-yl)oxyphenyl]pyridin-3-yl]acetic acid], the IC50 is 10 to 1000 nM.

For `N#Cc1ccc(-c2ncc([C@H](O)CN)cn2)c(Oc2cc(C3CC3)nn2CC(F)(F)F)c1` [compound 411, 4-[5-[(1S)-2-amino-1-hydroxyethyl]pyrimidin-2-yl]-3-[5-cyclopropyl-2-(2,2,2-trifluoroethyl)pyrazol-3-yl]oxybenzonitrile], the IC50 was 10 to 1000 nM.

Regarding `Cc1cc(Oc2cc(C#N)ccc2-c2ccc(C(N)CO)cn2)cc(N2CCOCC2)n1` (centres unmarked) [compound 412, 4-[5-(1-amino-2-hydroxyethyl)pyridin-2-yl]-3-(2-methyl-6-morpholin-4-ylpyridin-4-yl)oxybenzonitrile], the IC50 was 10 to 1000 nM.

As to `Cn1nc(C(C)(C)C)cc1Oc1cc(C#N)ccc1-c1ccc(C(N)CO)cn1` (centres unmarked) [compound 413, 4-[5-(1-amino-2-hydroxyethyl)pyridin-2-yl]-3-(5-tert-butyl-2-methylpyrazol-3-yl)oxybenzonitrile], the IC50 was under 10 nM.

Regarding `Cn1nc(C2CC2)cc1Oc1cc(C#N)ccc1-c1ccc2c(N)noc2c1` [compound 414, 4-(3-amino-1,2-benzoxazol-6-yl)-3-(5-cyclopropyl-2-methylpyrazol-3-yl)oxybenzonitrile], the IC50 was over 1000 nM.

For the molecule `Cn1nc(-c2ccccc2)cc1Oc1cc(C#N)ccc1-c1ccc2c(N)noc2c1` [compound 415, 4-(3-amino-1,2-benzoxazol-6-yl)-3-(2-methyl-5-phenylpyrazol-3-yl)oxybenzonitrile], the IC50 was over 1000 nM.

Consider `Cn1nc(C2CC2)cc1Oc1cc(C#N)ccc1-c1ccc(N)cn1` [compound 416, 4-(5-aminopyridin-2-yl)-3-(5-cyclopropyl-2-methylpyrazol-3-yl)oxybenzonitrile], for which the IC50 is over 1000 nM.

`Cn1nc(C2CC2)cc1Oc1cc(C#N)ccc1-c1ncc(N)cn1` [compound 417, 4-(5-aminopyrimidin-2-yl)-3-(5-cyclopropyl-2-methylpyrazol-3-yl)oxybenzonitrile]: the IC50 is over 1000 nM.

On to `Cc1cc(Oc2cc(C#N)ccc2-c2ccc(C(N)C(N)=O)cn2)cc(N2CCOCC2)n1` (centres unmarked) [compound 418, 2-amino-2-[6-[4-cyano-2-(2-methyl-6-morpholin-4-ylpyridin-4-yl)oxyphenyl]pyridin-3-yl]acetamide], for which the IC50 was 10 to 1000 nM.

Regarding `Cc1cc(Oc2cc(C#N)ccc2-c2ncc(CCN3CCOCC3)cn2)cc(N2CCOCC2)n1` [compound 419, 3-(2-methyl-6-morpholin-4-ylpyridin-4-yl)oxy-4-[5-(2-morpholin-4-ylethyl)pyrimidin-2-yl]benzonitrile], the IC50 is over 1000 nM.

Take `Cn1nc(C2CC2)cc1Oc1cc(C#N)ccc1-c1ncc(C(N)CO)cn1` (centres unmarked) [compound 420, 4-[5-(1-amino-2-hydroxyethyl)pyrimidin-2-yl]-3-(5-cyclopropyl-2-methylpyrazol-3-yl)oxybenzonitrile]: the IC50 is 10 to 1000 nM.

On to `Cn1nc(C2CC2)cc1Oc1cc(C#N)ccc1-c1ccc(C(N)CO)cn1` (centres unmarked) [compound 421, 4-[5-(1-amino-2-hydroxyethyl)pyridin-2-yl]-3-(5-cyclopropyl-2-methylpyrazol-3-yl)oxybenzonitrile], for which the IC50 is 10 to 1000 nM.

Take `Cn1nc(C2CC2)cc1Oc1cc(C#N)ccc1-c1ccc(C(N)C#N)cn1` (centres unmarked) [compound 422, 4-[5-[amino(cyano)methyl]pyridin-2-yl]-3-(5-cyclopropyl-2-methylpyrazol-3-yl)oxybenzonitrile]: the IC50 was 10 to 1000 nM.

On to `Cc1cc(Oc2cc(C#N)ccc2-c2ccc(C(N)C#N)cn2)cc(N2CCOCC2)n1` (centres unmarked) [compound 423, 4-[5-[amino(cyano)methyl]pyridin-2-yl]-3-(2-methyl-6-morpholin-4-ylpyridin-4-yl)oxybenzonitrile], for which the IC50 is 10 to 1000 nM.

On to `Cn1nc(C2CC2)cc1Oc1cc(C#N)ccc1-c1ccc(CN2CCOCC2)cn1` [compound 424, 3-(5-cyclopropyl-2-methylpyrazol-3-yl)oxy-4-[5-(morpholin-4-ylmethyl)pyridin-2-yl]benzonitrile], for which the IC50 is over 1000 nM.

For the molecule `Cc1cc(Oc2cc(C#N)ccc2-c2ccc(CN3CCOCC3)cn2)cc(N2CCOCC2)n1` [compound 425, 3-(2-methyl-6-morpholin-4-ylpyridin-4-yl)oxy-4-[5-(morpholin-4-ylmethyl)pyridin-2-yl]benzonitrile], the IC50 was over 1000 nM.

For the molecule `Cn1nc(C2CC2)cc1Oc1cc(C#N)ccc1-c1ccc(C(N)C(=O)O)cn1` (centres unmarked) [compound 426, 2-amino-2-[6-[4-cyano-2-(5-cyclopropyl-2-methylpyrazol-3-yl)oxyphenyl]pyridin-3-yl]acetic acid], the IC50 is under 10 nM.

On to `Cn1nc(C2CC2)cc1Oc1cc(C#N)ccc1-c1ccc(C2CNCCO2)cn1` (centres unmarked) [compound 427, 3-(5-cyclopropyl-2-methylpyrazol-3-yl)oxy-4-(5-morpholin-2-ylpyridin-2-yl)benzonitrile], for which the IC50 is 10 to 1000 nM.

Consider `Cn1nc(-c2ccccc2)cc1Oc1cc(C#N)ccc1-c1ccc(C(N)C(=O)O)cn1` (centres unmarked) [compound 428, 2-amino-2-[6-[4-cyano-2-(2-methyl-5-phenylpyrazol-3-yl)oxyphenyl]pyridin-3-yl]acetic acid], for which the IC50 was 10 to 1000 nM.

With `Cc1cc(Oc2cc(C#N)ccc2-c2ccc([C@H](O)CN)cn2)cc(N2CCOCC2)n1` [compound 429, 4-[5-[(1S)-2-amino-1-hydroxyethyl]pyridin-2-yl]-3-(2-methyl-6-morpholin-4-ylpyridin-4-yl)oxybenzonitrile], the IC50 is under 10 nM.

As for `Cc1cc(Oc2cc(C#N)ccc2-c2ncc([C@H](O)CN)cn2)cc(N2CCOCC2)n1` [compound 430, 4-[5-[(1S)-2-amino-1-hydroxyethyl]pyrimidin-2-yl]-3-(2-methyl-6-morpholin-4-ylpyridin-4-yl)oxybenzonitrile], the IC50 is under 10 nM.
